Consider five compounds from patent US10059687B2, “Histone demethylase inhibitors” (CELGENE QUANTICEL RESEARCH, INC., priority 2015, dated 2018).

The test system of experiment [1] is esophageal squamous cell carcinoma KYSE-150 cells. The experiment in a line: Cellular IC50 in KYSE-150 cells. It is filed as cell-based. The following applies: Homo sapiens, one class given per A and B pair. The source says: Table 7 provides IC50 values of various compounds disclosed herein, tested in cellular human esophageal squamous cell carcinoma KYSE-150 cells: […]

A further experiment relates to Jurkat cells. Description: Jurkat (T-ALL) cell line proliferation assay (Cell-MTS Assay). The class given is cell-based. The note with it: Homo sapiens, 168 hr incubation, cell gives A/B enantiomer values, read-out: Cellular IC50. The source says:
The Jurkat (T-ALL) cell line proliferation assay (Cell-MTS Assay) is a colorimetric cellular assay to assess the ability of KDM small molecule inhibitors to effect the proliferation of the established human acute T cell leukemia cancer cell line Jurkat.
This Cell-MTS assay is a 7-day plate-based colorimetric assay which quantifies the amount of newly generated NADH in the presence and absence of test compound. These NADH levels are used as a proxy for the quantification of cancer cell proliferation.
The established cancer cell line Jurkat with a verified p53 mutation were purchased from American Type Culture Collection (ATCC) and routinely passaged according to ATCC published protocols. For routine assay these cells were seeded at a density of 10,000 cells per 96-well. 24 hr after plating, cells received an 11-point dilution of test compound with final concentration ranges from 10 μM to 0.15 nM. Cells were incubated in the presence of compound for 168 hr at 37° C., 5% CO2. At the end of this compound incubation period, 80 μl of media is removed and 20 μL of CellTiter 96® AQueous Non-Radioactive Cell Proliferation Assay solution (Promega) is added. The cells were incubated until the OD490 reached >0.6. IC50 values are calculated using the IDBS XLfit software package and include background subtracted OD490 values and normalization to DMSO controls. Cellular proliferation IC50 values are uploaded and archived using the Chem Biography Platform.

The next experiment concerns the target Jarid1B (Homo sapiens (Human), UniProt Q9UGL1). Description: In vitro enzyme inhibition assay for Jarid1B activity (TR-FRET). The class given is biochemical. A general note: In TR-FRET formats the signal depends on donor and acceptor labels being close together.
For a further experiment, the target named is JMJD2C (Homo sapiens (Human), UniProt Q9H3R0). Description: In vitro enzyme inhibition assay for JMJD2C activity (TR-FRET). It is filed as biochemical. Put shortly: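 Baculovirus-expressed JMJD2C (aa 2-372, 0.3 nM) was reacted for 30 min at RT with 300 nM biotin-H3K9me3 peptide and 2 μM α-ketoglutarate in HEPES pH 7.3 buffer containing Fe(II), ascorbate and TCEP. After EDTA stop, H3K9me2 product was detected by TR-FRET (Eu-anti-H3K9me2/streptavidin-APC). IC50 was fitted from the 665/615 ratio of 11-point dilutions.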
JMJD2C, sequence (Q9H3R0 2-372): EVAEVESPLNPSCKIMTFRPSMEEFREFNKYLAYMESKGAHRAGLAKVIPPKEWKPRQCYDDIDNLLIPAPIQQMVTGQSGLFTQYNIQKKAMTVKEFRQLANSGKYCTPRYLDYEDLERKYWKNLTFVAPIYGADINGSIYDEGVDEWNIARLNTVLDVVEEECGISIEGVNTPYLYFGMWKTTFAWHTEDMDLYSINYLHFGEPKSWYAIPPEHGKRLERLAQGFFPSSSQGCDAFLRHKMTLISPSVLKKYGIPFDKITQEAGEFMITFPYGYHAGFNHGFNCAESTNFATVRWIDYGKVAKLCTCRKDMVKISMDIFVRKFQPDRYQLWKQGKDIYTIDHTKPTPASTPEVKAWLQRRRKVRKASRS

A further experiment has as its target JMJD3 (Homo sapiens, UniProt O15054). Description: In vitro enzyme inhibition assay for JMJD3 activity (TR-FRET). It is filed as biochemical. Put shortly: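 Baculovirus-expressed JMJD3 (AA1043-end), 5 nM, with 250 nM biotin-H3K27me3 peptide and 0.4–2 μM α-ketoglutarate in 50 mM HEPES pH 7.3, 50 μM ascorbate, 5 μM Fe(II); 30 min at RT. EDTA-stopped; H3K27me2 product detected by TR-FRET (Eu-antibody/streptavidin-APC), 665/615 ratio fitted to 11-point IC50.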

Where [2] appears, read: Table 4, cell gives A/B enantiomer values.
The mark [3] stands for this setting: Table 5, one class given per A and B pair.

Jarid1B, sequence (Q9UGL1 whole entry, species assumed, the tested form may be a part): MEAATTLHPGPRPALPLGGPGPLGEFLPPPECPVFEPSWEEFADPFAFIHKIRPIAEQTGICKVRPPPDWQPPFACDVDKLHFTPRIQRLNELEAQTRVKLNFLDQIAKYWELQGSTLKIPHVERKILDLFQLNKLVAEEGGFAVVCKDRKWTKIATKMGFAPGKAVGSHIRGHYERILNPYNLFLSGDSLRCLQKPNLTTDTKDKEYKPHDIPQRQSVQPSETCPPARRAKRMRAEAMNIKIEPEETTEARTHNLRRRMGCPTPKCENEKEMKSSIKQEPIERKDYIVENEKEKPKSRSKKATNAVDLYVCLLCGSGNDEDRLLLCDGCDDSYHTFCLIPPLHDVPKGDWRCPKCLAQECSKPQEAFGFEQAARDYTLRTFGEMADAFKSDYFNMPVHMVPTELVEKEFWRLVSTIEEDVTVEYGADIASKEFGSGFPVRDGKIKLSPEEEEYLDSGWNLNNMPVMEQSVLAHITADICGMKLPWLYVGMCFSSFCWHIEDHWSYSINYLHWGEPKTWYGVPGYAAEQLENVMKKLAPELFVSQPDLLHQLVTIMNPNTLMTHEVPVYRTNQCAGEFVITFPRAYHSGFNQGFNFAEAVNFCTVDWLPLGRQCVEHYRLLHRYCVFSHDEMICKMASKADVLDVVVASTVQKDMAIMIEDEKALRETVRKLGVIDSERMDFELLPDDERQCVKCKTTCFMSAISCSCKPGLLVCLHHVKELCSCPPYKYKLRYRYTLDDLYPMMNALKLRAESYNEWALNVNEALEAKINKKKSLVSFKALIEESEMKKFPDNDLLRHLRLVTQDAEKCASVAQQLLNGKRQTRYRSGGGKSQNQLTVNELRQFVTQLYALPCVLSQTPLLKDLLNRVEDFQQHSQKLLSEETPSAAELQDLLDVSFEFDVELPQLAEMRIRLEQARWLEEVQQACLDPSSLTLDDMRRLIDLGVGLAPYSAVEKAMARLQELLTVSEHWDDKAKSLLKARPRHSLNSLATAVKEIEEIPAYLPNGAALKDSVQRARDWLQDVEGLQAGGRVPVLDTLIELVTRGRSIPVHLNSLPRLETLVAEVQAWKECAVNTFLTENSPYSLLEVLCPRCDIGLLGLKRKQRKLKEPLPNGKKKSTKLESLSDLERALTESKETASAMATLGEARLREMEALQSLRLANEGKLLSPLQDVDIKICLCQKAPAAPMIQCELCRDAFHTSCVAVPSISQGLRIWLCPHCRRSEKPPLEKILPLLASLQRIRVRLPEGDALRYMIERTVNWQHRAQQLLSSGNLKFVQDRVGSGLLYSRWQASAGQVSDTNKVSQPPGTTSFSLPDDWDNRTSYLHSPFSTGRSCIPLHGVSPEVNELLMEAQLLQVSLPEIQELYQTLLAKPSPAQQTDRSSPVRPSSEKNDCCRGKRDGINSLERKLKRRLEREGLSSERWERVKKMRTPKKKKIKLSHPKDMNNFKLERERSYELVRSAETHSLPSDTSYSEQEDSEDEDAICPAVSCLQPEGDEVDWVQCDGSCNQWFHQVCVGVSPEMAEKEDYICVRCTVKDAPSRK

One may read the IC50 as the concentration that gives 50% inhibition. For the compound `Cc1ccc(N(C)c2ccc3c(c2)CCN[C@@H]3CNc2cnccc2C(=O)O)cc1` [Example 1A, 3-[({(1S)-6-[methyl(4-methylphenyl)amino]-1,2,3,4-tetrahydroisoquinolyl}methyl)amino]pyridine-4-carboxylic acid], the IC50 in experiment [1] was 1000 to 10000 nM; with Jurkat cells it was at most 100 nM; at Jarid1B (setting [2]), at most 100 nM; against Jarid1B (setting [3]) it was at most 100 nM; at JMJD2C (setting [2]), 100 to 1000 nM; at JMJD2C (setting [3]) it was 100 to 1000 nM.
Turning to `Cc1cc(OCC(F)(F)F)ccc1-c1ccc2c(c1)CCN[C@@H]2CNc1cnccc1C(=O)O` [Example 2A, 3-[({(1S)-6-[2-methyl-4-(2,2,2-trifluoro-ethoxy)phenyl]-1,2,3,4-tetrahydro-isoquinolyl}methyl)amino]pyridine-4-carboxylic acid], the IC50 against JMJD3 (setting [2]) was 1000 to 10000 nM; on JMJD3 (setting [3]), 1000 to 10000 nM; in experiment [1], over 10000 nM; in the experiment on Jurkat cells it was 100 to 1000 nM; on Jarid1B (setting [2]) it was at most 100 nM; against Jarid1B (setting [3]), at most 100 nM. Also, the concentration for half-maximal inhibition (IC50) against JMJD2C (setting [2]) and against JMJD2C (setting [3]) was 1000 to 10000 nM in each case.
`Cc1cc(OCC(F)(F)F)ccc1-c1ccc2c(c1)CCN[C@H]2CNc1cnccc1C(=O)O` [Example 2B, 3-[({(1R)-6-[2-methyl-4-(2,2,2-trifluoroethoxy)phenyl]-1,2,3,4-tetrahydroisoquinolyl)methyl)amino]pyridine-4-carboxylic acid]: the IC50 against JMJD3 (setting [2]) is 1000 to 10000 nM; at JMJD3 (setting [3]) it was 1000 to 10000 nM; in experiment [1], over 10000 nM; in the experiment with Jurkat cells, 100 to 1000 nM; against Jarid1B (setting [2]), at most 100 nM; on Jarid1B (setting [3]) it was at most 100 nM. Also, the IC50 on JMJD2C (setting [2]) and against JMJD2C (setting [3]) was 1000 to 10000 nM in each case.
In the case of `CCc1ccccc1-c1ccc2c(c1)CN(C)[C@H]2CNc1cnccc1C(=O)O` [Example 22A, (R)-3-(((5-(2-ethylphenyl)-2-methyl-isoindolin-1-yl)methyl)amino) isonicotinic acid], the 50% inhibitory concentration (IC50) is 1000 to 10000 nM against JMJD3 (setting [3]), at most 100 nM in experiment [1], at most 100 nM against Jarid1B (setting [3]) and 100 to 1000 nM against JMJD2C (setting [3]).
For `CCc1ccccc1-c1ccc2c(c1)CN(C)[C@@H]2CNc1cnccc1C(=O)O` [Example 22B, (S)-3-(((5-(2-ethylphenyl)-2-methyl-isoindolin-1-yl)methyl)amino) isonicotinic acid], the IC50 was 1000 to 10000 nM at JMJD3 (setting [3]), at most 100 nM in experiment [1], at most 100 nM against Jarid1B (setting [3]) and 100 to 1000 nM on JMJD2C (setting [3]).
